Assay results: PMC7395068, “The evolution of strategies to minimise the risk of human drug-induced liver injury (DILI) in drug discovery and development” (Archives of Toxicology, 2020)
Like-named read-outs stand apart in the source and are kept apart here. Blank lines part the entries; values can stand above or below the compound they belong to.

Assays:
hLiMTs [1] = assay: Combined HCI (HCS) and cellular ATP 3D assay in hLiMTs; conditions: for DILI prediction hLiMTs (HCS-MEC): Microtissue model structural based (HCI), combined HCS and ATP, MEC < 25 × Cmax.tot cut-off; for hLiMTs <25x Avg Cmax ATP / hLiMTs <100x Avg Cmaxu ATP: ATP endpoint; for hLiMTs <25x Avg Cmax ATP / hLiMTs <25x Avg Cmax HCS / hLiMTs <25x Avg Cmax All: cut-off <25x Avg Cmax; for hLiMTs <100x Avg Cmaxu ATP / hLiMTs <100x Avg Cmaxu HCS / hLiMTs <100x Avg Cmaxu All: cut-off <100x Avg Cmaxu; for hLiMTs <25x Avg Cmax HCS / hLiMTs <100x Avg Cmaxu HCS: HCS endpoints; for hLiMTs <25x Avg Cmax All: all endpoints (ATP and HCS); for hLiMTs Cmax max All / hLiMTs Cmax min All / hLiMTs <10 uM All / hLiMTs <100x Avg Cmaxu All: all endpoints; for hLiMTs Cmax max All: Cmax max used; for hLiMTs Cmax min All: Cmax min used; for hLiMTs <10 uM All: cut-off <10 uM
[2] = Plasma free fraction (fu) and unbound Cmax (Cmax,u); type: in vitro ADME, human; conditions: unbound plasma Cmax
[3] = system: THLE or HepG2 cells, isolated mitochondria, BSEP; conditions: cited from earlier work
[4] = system: HepG2 C3A spheroid, BSEP, Glu/Gal in HepG2 cells, bioactivation; conditions: cited from earlier work; for Bayesian Machine Learning: In vitro Assay, ref Williams 2019
[5] = plasma free fraction; cited from earlier work
HepaRG spheroids = assay: Combined HCI (HCS) and cellular ATP 3D assay in HepaRG spheroids; conditions: for HepaRG <25x Avg Cmax ATP / HepaRG <100x Avg Cmaxu ATP: ATP endpoint; for HepaRG <25x Avg Cmax ATP / HepaRG <25x Avg Cmax HCS / HepaRG <25x Avg Cmax All: cut-off <25x Avg Cmax; for HepaRG <100x Avg Cmaxu ATP / HepaRG <100x Avg Cmaxu HCS / HepaRG <100x Avg Cmaxu All: cut-off <100x Avg Cmaxu; for HepaRG <25x Avg Cmax HCS / HepaRG <100x Avg Cmaxu HCS: HCS endpoints; for HepaRG <25x Avg Cmax All: all endpoints (ATP and HCS); for HepaRG Cmax max All / HepaRG Cmax min All / HepaRG <10 uM All / HepaRG <100x Avg Cmaxu All: all endpoints; for HepaRG Cmax max All: Cmax max used; for HepaRG Cmax min All: Cmax min used; for HepaRG <10 uM All: cut-off <10 uM; for AC50 / minimal effective concentration: Homo sapiens; for HepaRG <25x Avg Cmax ATP / HepaRG <100x Avg Cmaxu ATP / HepaRG <25x Avg Cmax HCS / HepaRG <100x Avg Cmaxu HCS / HepaRG <25x Avg Cmax All / HepaRG Cmax max All / HepaRG Cmax min All / HepaRG <10 uM All / HepaRG <100x Avg Cmaxu All / AC50 / minimal effective concentration: HepaRG; for DILI prediction HepaRG spheroids (HCS-MEC): Microtissue model structural based (HCI), combined HCS and ATP, MEC < 25 × Cmax.tot cut-off
[6] = read-out: Human plasma Cmax; total plasma Cmax.tot, median of 9 literature references; cited from earlier work
[7] = cited from earlier work
PHH = conditions: cited from earlier work
[8] = cited from earlier work; remark: listed apart in the source
hLiMTs [9] = conditions: cited from earlier work
[10] = Modeled in vitro assays (cytotoxicity, mitochondrial dysfunction, BSEP), ref Aleo et al. 2019
[11] = In vitro Assay, ref Proctor 2017

SMILES: N[C@@H](Cc1cc(I)c(Oc2ccc(O)c(I)c2)c(I)c1)C(=O)O [liothyronine]
- DILI prediction hLiMTs (HCS-MEC) (hLiMTs [1]): -VE
- hLiMTs <25x Avg Cmax ATP (hLiMTs [1]): -ve
- hLiMTs <100x Avg Cmaxu ATP (hLiMTs [1]): -ve
- hLiMTs <25x Avg Cmax HCS (hLiMTs [1]): -ve
- hLiMTs <100x Avg Cmaxu HCS (hLiMTs [1]): -ve
- hLiMTs <25x Avg Cmax All (hLiMTs [1]): -ve
- hLiMTs Cmax max All (hLiMTs [1]): -ve
- hLiMTs Cmax min All (hLiMTs [1]): -ve
- hLiMTs <10 uM All (hLiMTs [1]): -ve
- hLiMTs <100x Avg Cmaxu All (hLiMTs [1]): -ve
- Human plasma Cmax,u [2]: 0.05 nM
- Partition Hybrid HRM Score ([3]; In vitro Assay, ref Aleo 2019): -VE
- Ro2 Hybrid HRM Score ([3]; In vitro Assay, ref Aleo 2019): -VE
- Partition Hybrid HRM Score ≥4, Aleo (2019) [3, 10]: -VE
- Partition Hybrid HRM Score ≥8, Aleo (2019) [3, 10]: -VE
- Rule of Two hybrid HRM Score ≥3, Aleo (2019) [3, 10]: -VE
- Rule of Two hybrid HRM Score ≥8, Aleo (2019) [3, 10]: -VE
- Bayesian Machine Learning [4]: -VE
- fu [5]: 0.020
- HepaRG <25x Avg Cmax ATP (HepaRG spheroids): -ve
- HepaRG <100x Avg Cmaxu ATP (HepaRG spheroids): -ve
- HepaRG <25x Avg Cmax HCS (HepaRG spheroids): -ve
- HepaRG <100x Avg Cmaxu HCS (HepaRG spheroids): -ve
- HepaRG <25x Avg Cmax All (HepaRG spheroids): -ve
- HepaRG Cmax max All (HepaRG spheroids): -ve
- HepaRG Cmax min All (HepaRG spheroids): -ve
- HepaRG <10 uM All (HepaRG spheroids): +ve (<10 uM)
- HepaRG <100x Avg Cmaxu All (HepaRG spheroids): -ve
- AC50 (HepaRG spheroids; read-out: ATP endpoint AC50): 30.5 µM
- minimal effective concentration (HepaRG spheroids; read-out: ATP endpoint MEC): 11.5 µM
- AC50 (HepaRG spheroids; read-out: HCS endpoint AC50): 82.8 µM
- minimal effective concentration (HepaRG spheroids; read-out: HCS endpoint MEC): 4.14 µM
- DILI prediction HepaRG spheroids (HCS-MEC) (HepaRG spheroids): -VE
- Cmax [6]: 2 nM

- hLiMTs <25x Avg Cmax ATP (hLiMTs [1]): -ve
- hLiMTs <100x Avg Cmaxu ATP (hLiMTs [1]): -ve
- hLiMTs <25x Avg Cmax HCS (hLiMTs [1]): -ve
- hLiMTs <100x Avg Cmaxu HCS (hLiMTs [1]): -ve
- hLiMTs <25x Avg Cmax All (hLiMTs [1]): -ve
- hLiMTs Cmax max All (hLiMTs [1]): -ve
- hLiMTs Cmax min All (hLiMTs [1]): -ve
- hLiMTs <10 uM All (hLiMTs [1]): -ve
- hLiMTs <100x Avg Cmaxu All (hLiMTs [1]): -ve
- Human plasma Cmax,u [2]: 85 nM
- HepaRG <25x Avg Cmax ATP (HepaRG spheroids): -ve
- HepaRG <100x Avg Cmaxu ATP (HepaRG spheroids): -ve
- HepaRG <25x Avg Cmax HCS (HepaRG spheroids): -ve
- HepaRG <100x Avg Cmaxu HCS (HepaRG spheroids): -ve
- HepaRG <25x Avg Cmax All (HepaRG spheroids): -ve
- HepaRG Cmax max All (HepaRG spheroids): -ve
- HepaRG Cmax min All (HepaRG spheroids): -ve
- HepaRG <10 uM All (HepaRG spheroids): -ve
- HepaRG <100x Avg Cmaxu All (HepaRG spheroids): -ve
SMILES: CNC1(C)C2CCC(C2)C1(C)C (stereo not drawn) [mecamylamine]
- DILI prediction hLiMTs (HCS-MEC) (hLiMTs [1]): -VE
- Assigned DILI category ([7]; Chen et al. 2016 or literature alignment, ref Chen et al. 2016): 1
- In vivo DILI ([7]; […]): -VE
- In vivo DILI ([7]; ref Proctor 2017): -VE
- In vivo DILI ([7]; ref Williams 2019): -VE
- PHH/100xCmax, Proctor (2017) (PHH; 2D PHH, ATP, IC50 < 100 × Cmax.tot, ref Proctor et al. 2017): -VE
- PHH/100uM, Proctor (2017) (PHH; 2D PHH, ATP, IC50 threshold 100 µM, ref Proctor et al. 2017): -VE
- PHH ATP <100uM (PHH; [11]): -VE
- Bayesian Machine Learning DILI prediction, Williams (2019) ([4]; Bayesian modeling, ref Williams et al. 2019): -VE
- Bayesian Machine Learning [4]: -VE
- fu [5]: 0.600
- minimal effective concentration (HepaRG spheroids; read-out: HCS endpoint MEC): 12.2 µM
- DILI prediction HepaRG spheroids (HCS-MEC) (HepaRG spheroids): -VE
- DILI severity category (Chen et al. [2016]) ([8]; LTKB DILIrank category, ref Chen et al. 2016): No
- DILI severity category (Chen 2016) ([8]; human DILI classification, LTKB DILIrank, ref Chen et al. 2016): No
- DILI severity category ([8]; human DILI severity, ref Chen et al.): No
- DILI +VE (5-8), DILI -VE (-4) ([8]; ref Chen 2016): -VE
- DILI severity category ([8]; ref Chen 2016): vNo-DILI-Concern
- Cmax [6]: 142 nM
- hLiMTs ATP <100uM (hLiMTs [9]; [11]): -VE
- hLiMTs/100xCmax, Proctor (2017) (hLiMTs [9]; hLiMTs, ATP, IC50 < 100 × Cmax.tot, ref Proctor et al. 2017): -VE
- hLiMTs/100uM, Proctor (2017) (hLiMTs [9]; hLiMTs, ATP, IC50 threshold 100 µM, ref Proctor et al. 2017): -VE
